Measured values as given in ChEMBL document CHEMBL1629662, “Antimicrobial activity of prulifloxacin tested against a worldwide collection of gastroenteritis-producing pathogens, including those causing traveler's diarrhea” (2009).
≈ marks a conversion by molar mass, not a printed value.

Tests used:
Vibrio sp. [1] = experiment: Antibacterial activity against Vibrio sp. assessed as growth inhibition at 0.008 ug/ml by broth microdilution method; format: functional
Escherichia coli [2] = experiment: Antibacterial activity against Escherichia coli assessed as growth inhibition at 2 ug/ml by broth microdilution method; format: functional
Campylobacter sp. [3] = experiment: Antibacterial activity against Campylobacter sp. assessed as growth inhibition at 0.25 ug/ml by broth microdilution method; format: functional
Vibrio cholerae [4] = experiment: Antibacterial activity against Vibrio cholerae assessed as percent resistant isolates by broth microdilution method; format: functional
Campylobacter sp. [5] = experiment: Antibacterial activity against Campylobacter sp. assessed as growth inhibition at 2 ug/ml by broth microdilution method; format: functional
Plesiomonas shigelloides [6] = experiment: Antibacterial activity against Plesiomonas shigelloides assessed as growth inhibition at 0.008 ug/ml by broth microdilution method; format: functional
Vibrio fluvialis = experiment: Antibacterial activity against Vibrio fluvialis by broth microdilution method; format: functional
Shigella boydii = experiment: Antibacterial activity against Shigella boydii by broth microdilution method; format: functional
Aeromonas sp. [7] = experiment: Antibacterial activity against Aeromonas sp. assessed as growth inhibition at 0.016 ug/ml by broth microdilution method; format: functional
Aeromonas sp. [8] = experiment: Antibacterial activity against Aeromonas sp. assessed as growth inhibition at 0.12 ug/ml by broth microdilution method; format: functional
[9] = tested on: Yersinia pseudotuberculosis; experiment: Antibacterial activity against Yersinia pseudotuberculosis assessed as percent susceptible isolates by broth microdilution method; format: functional
Vibrio sp. [10] = experiment: Antibacterial activity against Vibrio sp. assessed as growth inhibition at =<0.002 ug/ml by broth microdilution method; format: functional
Shigella sp. [11] = experiment: Antibacterial activity against Shigella sp. assessed as growth inhibition at 0.03 ug/ml by broth microdilution method; format: functional
Shigella sp. [12] = experiment: Antibacterial activity against Shigella sp. assessed as growth inhibition at 0.016 ug/ml by broth microdilution method; format: functional
Vibrio vulnificus = experiment: Antibacterial activity against Vibrio vulnificus assessed as percent resistant isolates by broth microdilution method; format: functional
Salmonella paratyphi [13] = experiment: Antibacterial activity against Salmonella enterica serovar Paratyphi assessed as percent susceptible isolates by broth microdilution method; format: functional, Salmonella enterica subsp. enterica serovar Paratyphi A
Escherichia coli [14] = experiment: Antibacterial activity against enteropathogenic Escherichia coli assessed as percent resistant isolates by broth microdilution method; format: functional
Yersinia sp. [15] = experiment: Antibacterial activity against Yersinia sp. assessed as growth inhibition at =<0.002 ug/ml by broth microdilution method; format: functional
Salmonella sp. [16] = experiment: Antibacterial activity against Salmonella sp. assessed as growth inhibition at 0.03 ug/ml by broth microdilution method; format: functional
Aeromonas sp. [17] = experiment: Antibacterial activity against Aeromonas sp. assessed as growth inhibition at =<0.002 ug/ml by broth microdilution method; format: functional
Yersinia sp. [18] = experiment: Antibacterial activity against Yersinia sp. assessed as growth inhibition at 0.12 ug/ml by broth microdilution method; format: functional; settings: Yersinia sp. (in: enterobacteria)
Shigella sp. [19] = experiment: Antibacterial activity against Shigella sp. assessed as growth inhibition at =<0.002 ug/ml by broth microdilution method; format: functional
Salmonella sp. [20] = experiment: Antibacterial activity against Salmonella sp. assessed as growth inhibition at 0.06 ug/ml by broth microdilution method; format: functional
Campylobacter sp. [21] = experiment: Antibacterial activity against Campylobacter sp. assessed as growth inhibition at =>4 ug/ml by broth microdilution method; format: functional
Salmonella typhi = experiment: Antibacterial activity against Salmonella enterica serovar Typhi assessed as percent susceptible isolates by broth microdilution method; format: functional, Salmonella enterica subsp. enterica serovar Typhi
Vibrio sp. [22] = experiment: Antibacterial activity against Vibrio sp. assessed as growth inhibition at 0.016 ug/ml by broth microdilution method; format: functional
Aeromonas veronii [23] = experiment: Antibacterial activity against Aeromonas veronii by broth microdilution method; format: functional
Yersinia sp. [24] = experiment: Antibacterial activity against Yersinia sp. assessed as growth inhibition at 0.06 ug/ml by broth microdilution method; format: functional; settings: Yersinia sp. (in: enterobacteria)
Aeromonas caviae = experiment: Antibacterial activity against Aeromonas caviae by broth microdilution method; format: functional
Salmonella typhimurium = experiment: Antibacterial activity against Salmonella enterica serovar Typhimurium by broth microdilution method; format: functional, Salmonella enterica subsp. enterica serovar Typhimurium
Salmonella paratyphi [25] = experiment: Antibacterial activity against Salmonella enterica serovar Paratyphi by broth microdilution method; format: functional, Salmonella enterica subsp. enterica serovar Paratyphi A
Aeromonas sp. [26] = experiment: Antibacterial activity against Aeromonas sp. assessed as growth inhibition at 2 ug/ml by broth microdilution method; format: functional
Campylobacter sp. [27] = experiment: Antibacterial activity against Campylobacter sp. assessed as growth inhibition at 0.004 ug/ml by broth microdilution method; format: functional
Campylobacter coli = experiment: Antibacterial activity against Campylobacter coli by broth microdilution method; format: functional
Vibrio sp. [28] = experiment: Antibacterial activity against Vibrio sp. assessed as growth inhibition at 0.004 ug/ml by broth microdilution method; format: functional
Escherichia coli [29] = experiment: Antibacterial activity against Escherichia coli assessed as growth inhibition at =<0.002 ug/ml by broth microdilution method; format: functional
Vibrio cholerae [30] = experiment: Antibacterial activity against Vibrio cholerae assessed as percent susceptible isolates by broth microdilution method; format: functional
Aeromonas hydrophila = experiment: Antibacterial activity against Aeromonas hydrophila assessed as percent resistant isolates by broth microdilution method; format: functional
[31] = Antibacterial activity against Salmonella enterica serovar Virchow by broth microdilution method; format: functional, Salmonella enterica subsp. enterica serovar Virchow
Yersinia enterocolitica = experiment: Antibacterial activity against Yersinia enterocolitica assessed as percent susceptible isolates by broth microdilution method; format: functional
Aeromonas sp. [32] = experiment: Antibacterial activity against Aeromonas sp. assessed as growth inhibition at 0.004 ug/ml by broth microdilution method; format: functional
[33] = tested on: Yersinia pseudotuberculosis; experiment: Antibacterial activity against Yersinia pseudotuberculosis by broth microdilution method; format: functional
Escherichia coli [34] = experiment: Antibacterial activity against enterotoxigenic Escherichia coli assessed as percent susceptible isolates by broth microdilution method; format: functional
Aeromonas sp. [35] = experiment: Antibacterial activity against Aeromonas sp. assessed as growth inhibition at 0.25 ug/ml by broth microdilution method; format: functional
Plesiomonas shigelloides [36] = experiment: Antibacterial activity against Plesiomonas shigelloides assessed as percent susceptible isolates by broth microdilution method; format: functional
Aeromonas veronii [37] = experiment: Antibacterial activity against Aeromonas veronii assessed as percent resistant isolates by broth microdilution method; format: functional
Campylobacter sp. [38] = experiment: Antibacterial activity against Campylobacter sp. assessed as growth inhibition at 0.016 ug/ml by broth microdilution method; format: functional
Vibrio sp. [39] = experiment: Antibacterial activity against Vibrio sp. assessed as percent resistant isolates by broth microdilution method; format: functional
Escherichia coli [40] = experiment: Antibacterial activity against enteropathogenic Escherichia coli by broth microdilution method; format: functional
Vibrio cholerae [41] = experiment: Antibacterial activity against Vibrio cholerae by broth microdilution method; format: functional
Shigella flexneri = experiment: Antibacterial activity against Shigella flexneri by broth microdilution method; format: functional

Compound `CC1Sc2c(C(=O)O)c(=O)c3cc(F)c(N4CCNCC4)cc3n21` (configuration not stated) [ULIFLOXACIN] has an inhibition at 0.008 µg/mL (Vibrio sp. [1]) of 40%, an inhibition at 2 µg/mL (Escherichia coli [2]) of 97% and an inhibition at 0.25 µg/mL (Campylobacter sp. [3]) of 83%. The Activity (Vibrio cholerae [4]) was 0%, the inhibition at 2 µg/mL (Campylobacter sp. [5]) was 85% and the inhibition at 0.008 µg/mL (Plesiomonas shigelloides [6]) was 100%. For the same compound, the MIC50 (Vibrio fluvialis) was 16 ng/mL (≈ 0.0458 µM), the MIC90 (Vibrio fluvialis) was 30 ng/mL (≈ 0.0859 µM) and the MIC50 (Shigella boydii) was 4 ng/mL (≈ 0.0114 µM). For the same compound, the MIC90 (Shigella boydii) was 8 ng/mL (≈ 0.0229 µM), the inhibition at 0.016 µg/mL (Aeromonas sp. [7]) was 78% and the inhibition at 0.12 µg/mL (Aeromonas sp. [8]) was 93%. For the same compound, the Activity [9] was 100%, the “inhibition (INH)” value (Vibrio sp. [10]) was 15% and the inhibition at 0.03 µg/mL (Shigella sp. [11]) was 99%. The inhibition at 0.016 µg/mL (Shigella sp. [12]) was 96%, the Activity (Vibrio vulnificus) was 0% and the Activity (Salmonella paratyphi [13]) was 100%. The Activity (Escherichia coli [14]) was 0%, the “inhibition (INH)” value (Yersinia sp. [15]) was 0% and the inhibition at 0.03 µg/mL (Salmonella sp. [16]) was 91%. The “inhibition (INH)” value (Aeromonas sp. [17]) was 16%, the inhibition at 0.12 µg/mL (Yersinia sp. [18]) was 100% and the “inhibition (INH)” value (Shigella sp. [19]) was 1%. For the same compound, the inhibition at 0.06 µg/mL (Salmonella sp. [20]) was 97%, the “inhibition (INH)” value (Campylobacter sp. [21]) was 100% and the Activity (Salmonella typhi) was 100%. For the same compound, the inhibition at 0.016 µg/mL (Vibrio sp. [22]) was 65%, the MIC50 (Aeromonas veronii [23]) was 4 ng/mL (≈ 0.0114 µM) and the MIC90 (Aeromonas veronii [23]) was 60 ng/mL (≈ 0.172 µM). It also gave an inhibition at 0.06 µg/mL (Yersinia sp. [24]) of 98%, an MIC50 (Aeromonas caviae) of 4 ng/mL (≈ 0.0114 µM) and an MIC90 (Aeromonas caviae) of 60 ng/mL (≈ 0.172 µM). For the same compound, the MIC50 (Salmonella typhimurium) was 8 ng/mL (≈ 0.0229 µM), the MIC90 (Salmonella typhimurium) was 30 ng/mL (≈ 0.0859 µM) and the MIC50 (Salmonella paratyphi [25]) was 8 ng/mL (≈ 0.0229 µM). For the same compound, the MIC90 (Salmonella paratyphi [25]) was 30 ng/mL (≈ 0.0859 µM), the inhibition at 2 µg/mL (Aeromonas sp. [26]) was 98% and the inhibition at 0.004 µg/mL (Campylobacter sp. [27]) was 0%. For the same compound, the MIC50 (Campylobacter coli) was 30 ng/mL (≈ 0.0859 µM), the MIC90 (Campylobacter coli) was greater than 2000 ng/mL and the inhibition at 0.004 µg/mL (Vibrio sp. [28]) was 35%. The “inhibition (INH)” value (Escherichia coli [29]) was 0%, the Activity (Vibrio cholerae [30]) was 100% and the Activity (Aeromonas hydrophila) was 2%. For the same compound, the MIC50 [31] was 8 ng/mL (≈ 0.0229 µM), the MIC90 [31] was 30 ng/mL (≈ 0.0859 µM) and the Activity (Yersinia enterocolitica) was 100%. The inhibition at 0.004 µg/mL (Aeromonas sp. [32]) was 55%, the MIC [33] was 8 ng/mL (≈ 0.0229 µM) and the MIC50 [33] was 8 ng/mL (≈ 0.0229 µM). The MIC90 [33] was 16 ng/mL (≈ 0.0458 µM), the Activity (Escherichia coli [34]) was 100% and the inhibition at 0.25 µg/mL (Aeromonas sp. [35]) was 95%. It also gave an Activity (Plesiomonas shigelloides [36]) of 100%, an Activity (Aeromonas veronii [37]) of 2% and an inhibition at 0.016 µg/mL (Campylobacter sp. [38]) of 8%. It also gave an Activity (Vibrio sp. [39]) of 0%, an MIC (Escherichia coli [40]) of 4 ng/mL (≈ 0.0114 µM) and an MIC50 (Escherichia coli [40]) of 8 ng/mL (≈ 0.0229 µM). For the same compound, the MIC90 (Escherichia coli [40]) was 8 ng/mL (≈ 0.0229 µM), the MIC50 (Escherichia coli [40]; Escherichia coli, read-out: MIC50) was 8 ng/mL (≈ 0.0229 µM) and the MIC90 (Escherichia coli [40]; Escherichia coli, read-out: MIC90) was 8 ng/mL (≈ 0.0229 µM). It also gave an MIC50 (Vibrio cholerae [41]) of 16 ng/mL (≈ 0.0458 µM), an MIC90 (Vibrio cholerae [41]) of 30 ng/mL (≈ 0.0859 µM) and an MIC50 (Shigella flexneri) of 4 ng/mL (≈ 0.0114 µM). For the same compound, the MIC90 (Shigella flexneri) was 8 ng/mL (≈ 0.0229 µM).
